From PMC12775819, “Optimizing PSMA-617-based inhibitors through charged linker modifications: Insights into structure-activity relationships” (Theranostics, 2026)
Non-standard residues stand in square brackets, D forms with d. Residues, ends and D or L forms follow the SMILES beside them. *: point of attachment. DOTA = O=C(O)CN1CCN(CC(=O)O)CCN(CC(=O)*)CCN(CC(=O)O)CC1; EuK = O=C(O)CC[C@H](NC(=O)N[C@@H](CCCCN*)C(=O)O)C(=O)O; 2Nal = N[C@@H](Cc1ccc2ccccc2c1)C(=O)O; Trx = NC[C@H]1CC[C@H](C(=O)O)CC1

Legend:
[1] = in vivo; details: male, BALB/c nu/nu, mouse, iv, 500 pmol, total radioactivity
[2] = Partition coefficient (logD), n-octanol/PBS pH 7.4; format: physicochemical; details: 68Ga-labeled compounds, mean ± SD, read-out: Partition Coefficient [logDoctanol/PBS]
Experimental: To determine the lipophilicity expressed as distribution coefficient (logD), a two-phase system of n-octanol (500 µl) and phosphate buffered saline (PBS) (490 µl) at pH 7.4 was used (n = 4). Compounds were radiolabeled with [^68Ga]Ga^3+ and the mixture diluted to a concentration of 0.25 µM in PBS. 10 µl of the 0.25 µM dilution were added to the n-octanol / PBS mixture. After extensive mixing, the 2-phase system was centrifuged for 10 min at 14,000 rpm and 4 °C. Two samples from each phase (100 µl) were taken and measured in a γ-gamma counter (PerkinElmer, Waltham, USA). […] The data is presented as the mean value with the standard deviation (SD).

[3] = test system: PSMA-positive LNCaP cells; test: Surface binding and internalization of 68Ga-labeled compounds; format: cell-based, human; details: for Internalization Block / Surface Binding Block / Internalization / Surface Binding: 30 nM, 45 min, 37 °C; for Internalization Block / Surface Binding Block: blocked with 2-PMPA 500 µM; for Internalization / Surface Binding: unblocked; for Specific Internalization / Specific Surface Binding: difference of unblocked and blocked values
Experimental: The PSMA-positive human cell line LNCaP (human lymph node carcinoma of the prostate; ATCC CRL-1740) was cultivated adherently at 37 °C and humidified 5% CO2 with RPMI-1640 (Thermo Fisher Scientific, Germany) supplemented with 10% fetal bovine serum (Sigma-Aldrich, Germany), 1% sodium pyruvate (Life Technologies, Germany) and 1% penicillin/[…] (Thermo Fisher Scientific, Germany). A mixture of trypsin/ethylenediaminetetraacetic acid (0.05% / 0.02%; Thermo Fisher Scientific, Germany) was used for cell harvesting (last authentication: April 2024).
Internalization assays were performed on poly-L-lysine coated 24-well cell culture plates. The day before the experiment, LNCaP cells (10^5 cells/well) were harvested and seeded to the wells. The cells were incubated with the ^68Ga-labeled compounds (250 µl, 30 nM, diluted in RPMI medium) for 45 min at 37 °C. […] The medium was then removed and the cells washed with ice-cold PBS buffer (3 × 1 ml). To remove surface bound compounds, ice-cold glycine buffer (2 × 0.5 ml, 50 mM, pH 2.8) was added to the wells and collected after 5 min in a combined fraction. After washing once with PBS (1 ml), NaOH (0.5 ml, 0.3 M) was added to the cells for lysation. Collected surface-bound, internalized fractions and standards from the stock solutions (25 µl) were measured in a γ-counter. Data was normalized and presented as percentage of the initially added radioactivity bound to 10^5 cells [%IA/10^5 cells].

[4] = Static small-animal PET imaging 1 h and 2 h p.i.; details: male, BALB/c nu/nu, mouse, tumor / kidney, iv, 500 pmol, total radioactivity

Row | SMILES | tissue to tissue ratio at 1 h [1] | tissue to tissue ratio at 2 h [1] | logD [2] | SUV at 1 h ([1]; SUV kidneys) [SUV] | SUV at 2 h ([1]; SUV kidneys) [SUV] | SUV at 1 h ([1]; SUV muscle) [SUV] | SUV at 2 h ([1]; SUV muscle) [SUV] | SUV at 1 h ([1]; SUV tumor) [SUV] | SUV at 2 h ([1]; SUV tumor) [SUV] | Internalization Block [3] | Surface Binding Block [3] | Internalization [3] | Surface Binding [3] | Specific Internalization [3] | Specific Surface Binding [3] | tissue to tissue ratio at 1 h [4] | tissue to tissue ratio at 2 h [4]
1 | O=C(O)CC[C@H](NC(=O)N[C@@H](CCCCNC(=O)[C@H](CCC(=O)O)NC(=O)[C@H](CCC(=O)O)NC(=O)[C@H](CCC(=O)O)NC(=O)[C@H](Cc1ccc2ccccc2c1)NC(=O)[C@H]1CC[C@H](CNC(=O)CN2CCN(CC(=O)O)CCN(CC(=O)O)CCN(CC(=O)O)CC2)CC1)C(=O)O)C(=O)O [[^68Ga]Ga-PS6, metal not drawn] ({DOTA-Trx}-[2Nal]EEE-EuK) | 0.44 ± 0.15 | 2.15 ± 0.22 | – | – | – | – | – | – | – | – | – | – | – | – | – | – | –
2 | O=C(O)CC[C@H](NC(=O)N[C@@H](CCCCNC(=O)[C@H](Cc1ccc2ccccc2c1)NC(=O)[C@H](Cc1c[nH]cn1)NC(=O)[C@H](Cc1c[nH]cn1)NC(=O)[C@H](Cc1c[nH]cn1)NC(=O)[C@H]1CC[C@H](CNC(=O)CN2CCN(CC(=O)O)CCN(CC(=O)O)CCN(CC(=O)O)CC2)CC1)C(=O)O)C(=O)O [PS10, EuK-NaI-H3-ChX-DOTA] ({DOTA-Trx}-HHH[2Nal]-EuK) | – | – | -3.7 ± 0.6 | 8.13 ± 1.31 | 1.09 ± 0.06 | 0.21 ± 0.03 | 0.06 ± 0.02 | 0.65 ± 0.04 | 0.37 ± 0.05 | – | – | – | – | – | – | – | –
3 | O=C(O)CC[C@H](NC(=O)N[C@@H](CCCCNC(=O)[C@H](Cc1ccc2ccccc2c1)NC(=O)[C@H](Cc1c[nH]cn1)NC(=O)[C@H](CCC(=O)O)NC(=O)[C@H](Cc1c[nH]cn1)NC(=O)[C@H](CCC(=O)O)NC(=O)[C@H](Cc1c[nH]cn1)NC(=O)[C@H](CCC(=O)O)NC(=O)[C@H]1CC[C@H](CNC(=O)CN2CCN(CC(=O)O)CCN(CC(=O)O)CCN(CC(=O)O)CC2)CC1)C(=O)O)C(=O)O [PS2, EuK-NaI-(HE)3-ChX-DOTA] ({DOTA-Trx}-EHEHEH[2Nal]-EuK) | – | – | -3.4 ± 0.3 | 1.64 ± 0.1 | 1.01 ± 0.09 | 0.11 ± 0.02 | 0.11 ± 0.01 | 0.78 ± 0.05 | 0.74 ± 0.06 | 0.21 ± 0.036 %Binding / %Internalization | 0.183 ± 0.024 %Binding / %Internalization | 0.55 ± 0.04 %Binding / %Internalization | 1.01 ± 0.14 %Binding / %Internalization | 0.34 ± 0.24 %Binding / %Internalization | 0.83 ± 0.27 %Binding / %Internalization | – | –
4 | O=C(O)CC[C@H](NC(=O)N[C@@H](CCCCNC(=O)[C@H](Cc1c[nH]cn1)NC(=O)[C@H](Cc1c[nH]cn1)NC(=O)[C@H](Cc1c[nH]cn1)NC(=O)[C@H](Cc1ccc2ccccc2c1)NC(=O)[C@H]1CC[C@H](CNC(=O)CN2CCN(CC(=O)O)CCN(CC(=O)O)CCN(CC(=O)O)CC2)CC1)C(=O)O)C(=O)O [PS9, EuK-H3-NaI-ChX-DOTA] ({DOTA-Trx}-[2Nal]HHH-EuK) | – | – | -3.2 ± 0.1 | 0.98 ± 0.09 | 0.74 ± 0.09 | 0.082 ± 0.002 | 0.07 ± 0.03 | 0.21 ± 0.05 | 0.12 ± 0.03 | – | – | – | – | – | – | – | –
5 | O=C(O)CC[C@H](NC(=O)N[C@@H](CCCCNC(=O)[C@H](Cc1ccc2ccccc2c1)NC(=O)[C@H]1CC[C@H](CNC(=O)[C@H](CCC(=O)O)NC(=O)[C@H](Cc2c[nH]cn2)NC(=O)[C@H](CCC(=O)O)NC(=O)[C@H](Cc2c[nH]cn2)NC(=O)[C@H](CCC(=O)O)NC(=O)[C@H](Cc2c[nH]cn2)NC(=O)CN2CCN(CC(=O)O)CCN(CC(=O)O)CCN(CC(=O)O)CC2)CC1)C(=O)O)C(=O)O [PS4, EuK-NaI-ChX-(EH)3-DOTA] ({DOTA}-HEHEHE[Trx][2Nal]-EuK) | – | – | -3.9 ± 0.3 | 3.81 ± 0.15 | 2.77 ± 0.2 | 0.11 ± 0.02 | 0.1 ± 0.03 | 1.15 ± 0.04 | 1.07 ± 0.09 | 0.149 ± 0.047 %Binding / %Internalization | 0.080 ± 0.009 %Binding / %Internalization | 0.81 ± 0.29 %Binding / %Internalization | 1.43 ± 0.12 %Binding / %Internalization | 0.66 ± 0.68 %Binding / %Internalization | 1.35 ± 0.21 %Binding / %Internalization | – | –
6 | O=C(O)CC[C@H](NC(=O)N[C@@H](CCCCNC(=O)[C@H](Cc1ccc2ccccc2c1)NC(=O)[C@H](Cc1c[nH]cn1)NC(=O)[C@H](CCC(=O)O)NC(=O)[C@H](Cc1c[nH]cn1)NC(=O)[C@H](CCC(=O)O)NC(=O)[C@H](Cc1c[nH]cn1)NC(=O)[C@H](CCC(=O)O)NC(=O)[C@H]1CC[C@H](CNC(=O)CN2CCN(CC(=O)O)CCN(CC(=O)O)CCN(CC(=O)O)CC2)CC1)C(=O)O)C(=O)O [[^68Ga]Ga-PS2, metal not drawn] ({DOTA-Trx}-EHEHEH[2Nal]-EuK) | – | – | – | – | – | – | – | – | – | – | – | – | – | – | – | 0.47 ± 0.14 | 0.73 ± 0.14
7 | O=C(O)CC[C@H](NC(=O)N[C@@H](CCCCNC(=O)[C@H](Cc1ccc2ccccc2c1)NC(=O)[C@H]1CC[C@H](CNC(=O)[C@H](Cc2c[nH]cn2)NC(=O)[C@H](Cc2c[nH]cn2)NC(=O)[C@H](Cc2c[nH]cn2)NC(=O)CN2CCN(CC(=O)O)CCN(CC(=O)O)CCN(CC(=O)O)CC2)CC1)C(=O)O)C(=O)O [PS11, EuK-NaI-ChX-H3-DOTA] ({DOTA}-HHH[Trx][2Nal]-EuK) | – | – | -3.6 ± 0.1 | 1.24 ± 0.08 | 0.77 ± 0.13 | 0.11 ± 0.02 | 0.1 ± 0.03 | 0.82 ± 0.07 | 0.88 ± 0.09 | – | – | – | – | – | – | – | –
8 | O=C(O)CC[C@H](NC(=O)N[C@@H](CCCCNC(=O)[C@H](CCC(=O)O)NC(=O)[C@H](CCC(=O)O)NC(=O)[C@H](CCC(=O)O)NC(=O)[C@H](Cc1ccc2ccccc2c1)NC(=O)[C@H]1CC[C@H](CNC(=O)CN2CCN(CC(=O)O)CCN(CC(=O)O)CCN(CC(=O)O)CC2)CC1)C(=O)O)C(=O)O [PS6, EuK-E3-NaI-ChX-DOTA] ({DOTA-Trx}-[2Nal]EEE-EuK) | – | – | -3.1 ± 0.3 | 1.53 ± 0.08 | 0.4 ± 0.05 | 0.11 ± 0.02 | 0.11 ± 0.02 | 0.69 ± 0.07 | 0.85 ± 0.08 | – | – | – | – | – | – | – | –
9 | O=C(O)CC[C@H](NC(=O)N[C@@H](CCCCNC(=O)[C@H](Cc1ccc2ccccc2c1)NC(=O)[C@H]1CC[C@H](CNC(=O)[C@H](CCC(=O)O)NC(=O)[C@H](CCC(=O)O)NC(=O)[C@H](CCC(=O)O)NC(=O)CN2CCN(CC(=O)O)CCN(CC(=O)O)CCN(CC(=O)O)CC2)CC1)C(=O)O)C(=O)O [PS8, EuK-NaI-ChX-E3-DOTA] ({DOTA}-EEE[Trx][2Nal]-EuK) | – | – | -3 ± 0.1 | 3.89 ± 0.65 | 2.7 ± 0.89 | 0.08 ± 0.02 | 0.11 ± 0.02 | 1.32 ± 0.08 | 0.86 ± 0.39 | – | – | – | – | – | – | – | –
10 | O=C(O)CC[C@H](NC(=O)N[C@@H](CCCCNC(=O)[C@H](Cc1ccc2ccccc2c1)NC(=O)[C@H](CCC(=O)O)NC(=O)[C@H](CCC(=O)O)NC(=O)[C@H](CCC(=O)O)NC(=O)[C@H]1CC[C@H](CNC(=O)CN2CCN(CC(=O)O)CCN(CC(=O)O)CCN(CC(=O)O)CC2)CC1)C(=O)O)C(=O)O [PS7, EuK-NaI-E3-ChX-DOTA] ({DOTA-Trx}-EEE[2Nal]-EuK) | – | – | -3.3 ± 0.1 | 1.6 ± 0.12 | 0.59 ± 0.06 | 0.09 ± 0.01 | 0.12 ± 0.02 | 0.71 ± 0.05 | 0.56 ± 0.08 | – | – | – | – | – | – | – | –
11 | O=C(O)CC[C@H](NC(=O)N[C@@H](CCCCNC(=O)[C@H](Cc1c[nH]cn1)NC(=O)[C@H](CCC(=O)O)NC(=O)[C@H](Cc1c[nH]cn1)NC(=O)[C@H](CCC(=O)O)NC(=O)[C@H](Cc1c[nH]cn1)NC(=O)[C@H](CCC(=O)O)NC(=O)[C@H](Cc1ccc2ccccc2c1)NC(=O)[C@H]1CC[C@H](CNC(=O)CN2CCN(CC(=O)O)CCN(CC(=O)O)CCN(CC(=O)O)CC2)CC1)C(=O)O)C(=O)O [PS1, EuK-(HE)3-NaI-ChX-DOTA] ({DOTA-Trx}-[2Nal]EHEHEH-EuK) | – | – | -3.5 ± 0.2 | 1.71 ± 0.2 | 1.32 ± 0.15 | 0.09 ± 0.01 | 0.08 ± 0.02 | 0.43 ± 0.06 | 0.3 ± 0.11 | 0.314 ± 0.024 %Binding / %Internalization | 0.069 ± 0.012 %Binding / %Internalization | 0.66 ± 0.14 %Binding / %Internalization | 1.15 ± 0.17 %Binding / %Internalization | 0.35 ± 0.3 %Binding / %Internalization | 1.09 ± 0.34 %Binding / %Internalization | – | –
